PMC11981937 (Nature, 2025)
Values joined by “and” are separate entries in the source; they are usually repeats but may differ in a detail not shown here. Identical values can stand only once.

Assays:
[1] = In vivo mortality (stray panel in source data sheet Fig. 3d)
[2] = test system: SARS-CoV-2 B1; format: in vivo, Syrian golden hamster; conditions: pre-exposure
[3] = format: in vivo, Syrian golden hamster; conditions: Molnupiravir 200 mpk BID, pre-exposure

COc1cc(N[C@H](C(=O)c2c[nH]c3ccc(OC(F)(F)F)cc23)c2ccc(Cl)cc2OC)cc(S(C)(=O)=O)c1 [JNJ-1802]
% Survival ([1]; 802R_0.3, BID, d p.i. 0): 100%
% Survival ([1]; 802R_0.3, BID, d p.i. 1): 100%
% Survival ([1]; 802R_0.3, BID, d p.i. 2): 100%
% Survival ([1]; 802R_0.3, BID, d p.i. 3): 100%
% Survival ([1]; 802R_0.3, BID, d p.i. 4): 100%
% Survival ([1]; 802R_0.3, BID, d p.i. 5): 100%
% Survival ([1]; 802R_0.3, BID, d p.i. 6): 100%
% Survival ([1]; 802R_0.3, BID, d p.i. 7): 100%
% Survival ([1]; 802R_0.3, BID, d p.i. 8): 100%
% Survival ([1]; 802R_0.3, BID, d p.i. 9): 100%
% Survival ([1]; 802R_0.3, BID, d p.i. 10): 100%
% Survival ([1]; 802R_0.3, BID, d p.i. 11): 100%
% Survival ([1]; 802R_0.3, BID, d p.i. 12): 100%
% Survival ([1]; 802R_0.3, BID, d p.i. 13): 100%
% Survival ([1]; 802R_0.3, BID, d p.i. 14): 100%
% Survival ([1]; 802R_0.3, BID, d p.i. 15): 100%
% Survival ([1]; 802R_0.3, BID, d p.i. 16): 100%
% Survival ([1]; 802R_0.3, BID, d p.i. 17): 90%
% Survival ([1]; 802R_0.3, BID, d p.i. 18): 90%
% Survival ([1]; 802R_0.3, BID, d p.i. 19): 90%
% Survival ([1]; 802R_0.3, BID, d p.i. 20): 90%
% Survival ([1]; 802R_0.3, BID, d p.i. 21): 90%
% Survival ([1]; 802R_0.3, BID, d p.i. 22): 90%
% Survival ([1]; 802R_0.3, BID, d p.i. 23): 90%
% Survival ([1]; 802R_0.3, BID, d p.i. 24): 90%
% Survival ([1]; 802R_0.3, BID, d p.i. 25): 90%
% Survival ([1]; 802R_1, BID, d p.i. 0): 100%
% Survival ([1]; 802R_1, BID, d p.i. 1): 100%
% Survival ([1]; 802R_1, BID, d p.i. 2): 100%
% Survival ([1]; 802R_1, BID, d p.i. 3): 100%
% Survival ([1]; 802R_1, BID, d p.i. 4): 100%
% Survival ([1]; 802R_1, BID, d p.i. 5): 100%
% Survival ([1]; 802R_1, BID, d p.i. 6): 100%
% Survival ([1]; 802R_1, BID, d p.i. 7): 100%
% Survival ([1]; 802R_1, BID, d p.i. 8): 100%
% Survival ([1]; 802R_1, BID, d p.i. 9): 100%
% Survival ([1]; 802R_1, BID, d p.i. 10): 100%
% Survival ([1]; 802R_1, BID, d p.i. 11): 100%
% Survival ([1]; 802R_1, BID, d p.i. 12): 100%
% Survival ([1]; 802R_1, BID, d p.i. 13): 100%
% Survival ([1]; 802R_1, BID, d p.i. 14): 100%
% Survival ([1]; 802R_1, BID, d p.i. 15): 100%
% Survival ([1]; 802R_1, BID, d p.i. 16): 100%
% Survival ([1]; 802R_1, BID, d p.i. 17): 100%
% Survival ([1]; 802R_1, BID, d p.i. 18): 100%
% Survival ([1]; 802R_1, BID, d p.i. 19): 100%
% Survival ([1]; 802R_1, BID, d p.i. 20): 100%
% Survival ([1]; 802R_1, BID, d p.i. 21): 100%
% Survival ([1]; 802R_1, BID, d p.i. 22): 100%
% Survival ([1]; 802R_1, BID, d p.i. 23): 100%
% Survival ([1]; 802R_1, BID, d p.i. 24): 100%
% Survival ([1]; 802R_1, BID, d p.i. 25): 100%
% Survival ([1]; 802R_3, BID, d p.i. 0): 100%
% Survival ([1]; 802R_3, BID, d p.i. 1): 100%
% Survival ([1]; 802R_3, BID, d p.i. 2): 100%
% Survival ([1]; 802R_3, BID, d p.i. 3): 100%
% Survival ([1]; 802R_3, BID, d p.i. 4): 100%
% Survival ([1]; 802R_3, BID, d p.i. 5): 100%
% Survival ([1]; 802R_3, BID, d p.i. 6): 100%
% Survival ([1]; 802R_3, BID, d p.i. 7): 100%
% Survival ([1]; 802R_3, BID, d p.i. 8): 100%
% Survival ([1]; 802R_3, BID, d p.i. 9): 100%
% Survival ([1]; 802R_3, BID, d p.i. 10): 100%
% Survival ([1]; 802R_3, BID, d p.i. 11): 100%
% Survival ([1]; 802R_3, BID, d p.i. 12): 100%
% Survival ([1]; 802R_3, BID, d p.i. 13): 100%
% Survival ([1]; 802R_3, BID, d p.i. 14): 100%
% Survival ([1]; 802R_3, BID, d p.i. 15): 100%
% Survival ([1]; 802R_3, BID, d p.i. 16): 100%
% Survival ([1]; 802R_3, BID, d p.i. 17): 100%
% Survival ([1]; 802R_3, BID, d p.i. 18): 100%
% Survival ([1]; 802R_3, BID, d p.i. 19): 100%
% Survival ([1]; 802R_3, BID, d p.i. 20): 100%
% Survival ([1]; 802R_3, BID, d p.i. 21): 100%
% Survival ([1]; 802R_3, BID, d p.i. 22): 90%
% Survival ([1]; 802R_3, BID, d p.i. 23): 90%
% Survival ([1]; 802R_3, BID, d p.i. 24): 80%
% Survival ([1]; 802R_3, BID, d p.i. 25): 80%
% Survival ([1]; 802R_10, BID, d p.i. 0): 100%
% Survival ([1]; 802R_10, BID, d p.i. 1): 100%
% Survival ([1]; 802R_10, BID, d p.i. 2): 100%
% Survival ([1]; 802R_10, BID, d p.i. 3): 100%
% Survival ([1]; 802R_10, BID, d p.i. 4): 100%
% Survival ([1]; 802R_10, BID, d p.i. 5): 100%
% Survival ([1]; 802R_10, BID, d p.i. 6): 100%
% Survival ([1]; 802R_10, BID, d p.i. 7): 100%
% Survival ([1]; 802R_10, BID, d p.i. 8): 100%
% Survival ([1]; 802R_10, BID, d p.i. 9): 100%
% Survival ([1]; 802R_10, BID, d p.i. 10): 100%
% Survival ([1]; 802R_10, BID, d p.i. 11): 100%
% Survival ([1]; 802R_10, BID, d p.i. 12): 100%
% Survival ([1]; 802R_10, BID, d p.i. 13): 100%
% Survival ([1]; 802R_10, BID, d p.i. 14): 100%
% Survival ([1]; 802R_10, BID, d p.i. 15): 80%
% Survival ([1]; 802R_10, BID, d p.i. 16): 80%
% Survival ([1]; 802R_10, BID, d p.i. 17): 80%
% Survival ([1]; 802R_10, BID, d p.i. 18): 80%
% Survival ([1]; 802R_10, BID, d p.i. 19): 80%
% Survival ([1]; 802R_10, BID, d p.i. 20): 80%
% Survival ([1]; 802R_10, BID, d p.i. 21): 80%
% Survival ([1]; 802R_10, BID, d p.i. 22): 80%
% Survival ([1]; 802R_10, BID, d p.i. 23): 80%
% Survival ([1]; 802R_10, BID, d p.i. 24): 80%
% Survival ([1]; 802R_10, BID, d p.i. 25): 80%

C[C@@]1(O)[C@H](O)[C@@H](CO)O[C@H]1n1ccc(N)nc1=O [2'CMC, reference compound]
% Survival ([1]; 2'CMC, d p.i. 0): 100%
% Survival ([1]; 2'CMC, d p.i. 1): 100%
% Survival ([1]; 2'CMC, d p.i. 2): 100%
% Survival ([1]; 2'CMC, d p.i. 3): 100%
% Survival ([1]; 2'CMC, d p.i. 4): 100%
% Survival ([1]; 2'CMC, d p.i. 5): 100%
% Survival ([1]; 2'CMC, d p.i. 6): 100%
% Survival ([1]; 2'CMC, d p.i. 7): 100%
% Survival ([1]; 2'CMC, d p.i. 8): 100%
% Survival ([1]; 2'CMC, d p.i. 9): 100%
% Survival ([1]; 2'CMC, d p.i. 10): 100%
% Survival ([1]; 2'CMC, d p.i. 11): 100%
% Survival ([1]; 2'CMC, d p.i. 12): 100%
% Survival ([1]; 2'CMC, d p.i. 13): 90%
% Survival ([1]; 2'CMC, d p.i. 14): 80%
% Survival ([1]; 2'CMC, d p.i. 15): 80%
% Survival ([1]; 2'CMC, d p.i. 16): 80%
% Survival ([1]; 2'CMC, d p.i. 17): 80%
% Survival ([1]; 2'CMC, d p.i. 18): 60%
% Survival ([1]; 2'CMC, d p.i. 19): 60%
% Survival ([1]; 2'CMC, d p.i. 20): 60%
% Survival ([1]; 2'CMC, d p.i. 21): 60%
% Survival ([1]; 2'CMC, d p.i. 22): 60%
% Survival ([1]; 2'CMC, d p.i. 23): 60%
% Survival ([1]; 2'CMC, d p.i. 24): 50%
% Survival ([1]; 2'CMC, d p.i. 25): 50%

CC(C)C(=O)OC[C@H]1O[C@@H](n2ccc(NO)nc2=O)[C@H](O)[C@@H]1O [molnupiravir, reference compound]
Histopathology score, average ([2]; 200 mg/kg/ BID, n=5): 2.10
Histopathology score, median ([2]; 200 mg/kg/ BID, n=5): 1.50
Infectious virus in the lung (TCID50/mg), average Log 10 ([2]; 200 mg/kg/ BID, n=5): 4.54 Log 10
Infectious virus in the lung (TCID50/mg), median Log 10 ([2]; 200 mg/kg/ BID, n=5): 4.21 Log 10
Viral load (viral RNA) in the lung, average Log 10 ([2]; 200 mg/kg/ BID, n=5): 9.78 Log 10
Viral load (viral RNA) in the lung, median Log 10 ([2]; 200 mg/kg/ BID, n=5): 9.74 Log 10
Histopathology score, individual animal ([2]; 200 mg/kg/ BID, 200 mg/kg): 1.5 and 3
Infectious virus in the lung (TCID50/mg), Log 10, individual animal ([2]; 200 mg/kg/ BID, 200 mg/kg): 4.01 Log 10 and 3.36 Log 10 and 6.13 Log 10 and 4.21 Log 10 and 4.99 Log 10
Infectious virus in the lung, individual animal ([2]; 200 mg/kg/ BID, 200 mg/kg): 10248.12 TCID50/mg and 2288.60 TCID50/mg and 1353038.68 TCID50/mg and 16040.54 TCID50/mg and 98821.18 TCID50/mg
Viral load (viral RNA) in the lung, Copy number, individual animal ([2]; 200 mg/kg/ BID, 200 mg/kg): 5.44E+09 and 8.11E+09 and 8.53E+09 and 4.38E+09 and 4.90E+09
Viral load (viral RNA) in the lung, Log 10, individual animal ([2]; 200 mg/kg/ BID, 200 mg/kg): 9.74 Log 10 and 9.91 Log 10 and 9.93 Log 10 and 9.64 Log 10 and 9.69 Log 10
decline in antiviral parameters (in words) ([2]; 300 mg per kg BID, reference): not significant
% body weight change compared to day 0, Avg ([3]; day 4 vs day 0, group average): 3.04%
% body weight change compared to day 0 ([3]; day 4 vs day 0, individual animals): 2.6% and 2.4% and 5% and 3% and 2.2%
